According to ChEMBL document CHEMBL4507297, “Data for DCP probe PF-04457845” (2021):

Assays:
[1] = system: Tyrosine-protein kinase ABL1 (Homo sapiens), P00519 [F317I]; conditions: Compound concentration 1000.0 nM
[2] = system: Tyrosine-protein kinase ABL1 (Homo sapiens), P00519 [F317L]; conditions: Compound concentration 1000.0 nM
[3] = system: Tyrosine-protein kinase ABL1 (Homo sapiens), P00519 [H396P]; conditions: Compound concentration 1000.0 nM
[4] = system: Tyrosine-protein kinase ABL1 (Homo sapiens), P00519 [H396P]; conditions: Compound concentration 1000.0 nM; remark: listed apart in the source
[5] = target: Tyrosine-protein kinase ABL1 (Homo sapiens) (UniProt P00519); conditions: Compound concentration 1000.0 nM
[6] = system: ALK tyrosine kinase receptor (Homo sapiens), Q9UM73 [C1156Y]; conditions: Compound concentration 1000.0 nM
[7] = target: Aurora kinase C (Homo sapiens) (UniProt Q9UQB9); conditions: Compound concentration 1000.0 nM
[8] = target: Tyrosine-protein kinase receptor UFO (Homo sapiens) (UniProt P30530); conditions: Compound concentration 1000.0 nM
[9] = target: Bone morphogenetic protein receptor type-1B (Homo sapiens) (UniProt O00238); conditions: Compound concentration 1000.0 nM
[10] = target: Calcium/calmodulin-dependent protein kinase type II subunit gamma (Homo sapiens) (UniProt Q13555); conditions: Compound concentration 1000.0 nM
[11] = target: Cyclin-dependent kinase 5 (Homo sapiens) (UniProt Q00535); conditions: Compound concentration 1000.0 nM
[12] = target: Cyclin-dependent kinase-like 3 (Homo sapiens) (UniProt Q8IVW4); conditions: Compound concentration 1000.0 nM
[13] = target: Serine/threonine-protein kinase Chk1 (Homo sapiens) (UniProt O14757); conditions: Compound concentration 1000.0 nM
[14] = target: Casein kinase I isoform gamma-3 (Homo sapiens) (UniProt Q9Y6M4); conditions: Compound concentration 1000.0 nM
[15] = system: Epidermal growth factor receptor (Homo sapiens), P00533 [L861Q]; conditions: Compound concentration 1000.0 nM
[16] = target: Eukaryotic translation initiation factor 2-alpha kinase 1 (Homo sapiens) (UniProt Q9BQI3); conditions: Compound concentration 1000.0 nM
[17] = target: Ephrin type-A receptor 1 (Homo sapiens) (UniProt P21709); conditions: Compound concentration 1000.0 nM
[18] = target: Mitogen-activated protein kinase 7 (Homo sapiens) (UniProt Q13164); conditions: Compound concentration 1000.0 nM
[19] = target: Fibroblast growth factor receptor 1 (Homo sapiens) (UniProt P11362); conditions: Compound concentration 1000.0 nM
[20] = system: Receptor-type tyrosine-protein kinase FLT3 (Homo sapiens), P36888 [K663Q]; conditions: Compound concentration 1000.0 nM
[21] = system: Receptor-type tyrosine-protein kinase FLT3 (Homo sapiens), P36888 [R834Q]; conditions: Compound concentration 1000.0 nM
[22] = target: Inhibitor of nuclear factor kappa-B kinase subunit beta (Homo sapiens) (UniProt O14920); conditions: Compound concentration 1000.0 nM
[23] = target: Mitogen-activated protein kinase kinase kinase 1 (Homo sapiens) (UniProt Q13233); conditions: Compound concentration 1000.0 nM
[24] = target: Tyrosine-protein kinase Mer (Homo sapiens) (UniProt Q12866); conditions: Compound concentration 1000.0 nM
[25] = target: Serine/threonine-protein kinase MRCK alpha (Homo sapiens) (UniProt Q5VT25); conditions: Compound concentration 1000.0 nM
[26] = target: Serine/threonine-protein kinase MRCK beta (Homo sapiens) (UniProt Q9Y5S2); conditions: Compound concentration 1000.0 nM
[27] = target: Macrophage-stimulating protein receptor (Homo sapiens) (UniProt Q04912); conditions: Compound concentration 1000.0 nM
[28] = target: Serine/threonine-protein kinase 26 (Homo sapiens) (UniProt Q9P289); conditions: Compound concentration 1000.0 nM
[29] = target: Serine/threonine-protein kinase Nek6 (Homo sapiens) (UniProt Q9HC98); conditions: Compound concentration 1000.0 nM
[30] = target: Cyclin-dependent kinase 16 (Homo sapiens) (UniProt Q00536); conditions: Compound concentration 1000.0 nM
[31] = system: Phosphatidylinositol 4,5-bisphosphate 3-kinase catalytic subunit alpha isoform (Homo sapiens), P42336 [E545A]; conditions: Compound concentration 1000.0 nM
[32] = system: Phosphatidylinositol 4,5-bisphosphate 3-kinase catalytic subunit alpha isoform (Homo sapiens), P42336 [I800L]; conditions: Compound concentration 1000.0 nM
[33] = target: 1-phosphatidylinositol 3-phosphate 5-kinase (Homo sapiens) (UniProt Q9Y2I7); conditions: Compound concentration 1000.0 nM
[34] = target: cAMP-dependent protein kinase catalytic subunit alpha (Homo sapiens) (UniProt P17612); conditions: Compound concentration 1000.0 nM
[35] = target: Serine/threonine-protein kinase N1 (Homo sapiens) (UniProt Q16512); conditions: Compound concentration 1000.0 nM
[36] = target: Serine/threonine-protein kinase N2 (Homo sapiens) (UniProt Q16513); conditions: Compound concentration 1000.0 nM
[37] = target: Serine/threonine-protein kinase PknB (Mycobacterium tuberculosis) (UniProt P9WI81); conditions: Compound concentration 1000.0 nM
[38] = target: Serine/threonine-protein kinase PLK3 (Homo sapiens) (UniProt Q9H4B4); conditions: Compound concentration 1000.0 nM
[39] = target: Ribosomal protein S6 kinase alpha-4 (Homo sapiens) (UniProt O75676); conditions: Compound concentration 1000.0 nM
[40] = target: STE20/SPS1-related proline-alanine-rich protein kinase (Homo sapiens) (UniProt Q9UEW8); conditions: Compound concentration 1000.0 nM
[41] = target: Serine/threonine-protein kinase TAO3 (Homo sapiens) (UniProt Q9H2K8); conditions: Compound concentration 1000.0 nM
[42] = target: Non-receptor tyrosine-protein kinase TYK2 (Homo sapiens) (UniProt P29597); conditions: Compound concentration 1000.0 nM
[43] = target: Mitogen-activated protein kinase kinase kinase 19 (Homo sapiens) (UniProt Q56UN5); conditions: Compound concentration 1000.0 nM
[44] = target: Tyrosine-protein kinase ZAP-70 (Homo sapiens) (UniProt P43403); conditions: Compound concentration 1000.0 nM
[45] = target: 5-hydroxytryptamine receptor 1D (Homo sapiens) (UniProt P28221); conditions: Compound concentration 10.0 uM
Sequence of 5-hydroxytryptamine receptor 1D (Homo sapiens) (P28221 whole entry): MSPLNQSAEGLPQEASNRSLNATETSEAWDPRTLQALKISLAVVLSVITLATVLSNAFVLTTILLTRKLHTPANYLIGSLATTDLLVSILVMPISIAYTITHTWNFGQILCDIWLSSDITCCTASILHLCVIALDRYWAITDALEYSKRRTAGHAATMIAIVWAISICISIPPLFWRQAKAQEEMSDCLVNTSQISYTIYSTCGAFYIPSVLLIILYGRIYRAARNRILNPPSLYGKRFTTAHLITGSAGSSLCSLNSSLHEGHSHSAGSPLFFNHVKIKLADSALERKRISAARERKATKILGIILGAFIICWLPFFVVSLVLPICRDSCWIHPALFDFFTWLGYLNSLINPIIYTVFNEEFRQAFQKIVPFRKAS

Sequence of Aurora kinase C (Homo sapiens) (Q9UQB9 whole entry): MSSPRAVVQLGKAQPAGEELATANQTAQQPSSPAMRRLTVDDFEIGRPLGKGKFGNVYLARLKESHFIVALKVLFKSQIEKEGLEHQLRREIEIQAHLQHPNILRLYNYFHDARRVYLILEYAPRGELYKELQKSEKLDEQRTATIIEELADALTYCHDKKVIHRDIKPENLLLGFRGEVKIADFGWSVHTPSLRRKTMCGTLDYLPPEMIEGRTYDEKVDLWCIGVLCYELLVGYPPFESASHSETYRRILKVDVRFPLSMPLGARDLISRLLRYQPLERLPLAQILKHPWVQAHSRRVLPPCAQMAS
Sequence of Fibroblast growth factor receptor 1 (Homo sapiens) (P11362 22-822 limits assumed): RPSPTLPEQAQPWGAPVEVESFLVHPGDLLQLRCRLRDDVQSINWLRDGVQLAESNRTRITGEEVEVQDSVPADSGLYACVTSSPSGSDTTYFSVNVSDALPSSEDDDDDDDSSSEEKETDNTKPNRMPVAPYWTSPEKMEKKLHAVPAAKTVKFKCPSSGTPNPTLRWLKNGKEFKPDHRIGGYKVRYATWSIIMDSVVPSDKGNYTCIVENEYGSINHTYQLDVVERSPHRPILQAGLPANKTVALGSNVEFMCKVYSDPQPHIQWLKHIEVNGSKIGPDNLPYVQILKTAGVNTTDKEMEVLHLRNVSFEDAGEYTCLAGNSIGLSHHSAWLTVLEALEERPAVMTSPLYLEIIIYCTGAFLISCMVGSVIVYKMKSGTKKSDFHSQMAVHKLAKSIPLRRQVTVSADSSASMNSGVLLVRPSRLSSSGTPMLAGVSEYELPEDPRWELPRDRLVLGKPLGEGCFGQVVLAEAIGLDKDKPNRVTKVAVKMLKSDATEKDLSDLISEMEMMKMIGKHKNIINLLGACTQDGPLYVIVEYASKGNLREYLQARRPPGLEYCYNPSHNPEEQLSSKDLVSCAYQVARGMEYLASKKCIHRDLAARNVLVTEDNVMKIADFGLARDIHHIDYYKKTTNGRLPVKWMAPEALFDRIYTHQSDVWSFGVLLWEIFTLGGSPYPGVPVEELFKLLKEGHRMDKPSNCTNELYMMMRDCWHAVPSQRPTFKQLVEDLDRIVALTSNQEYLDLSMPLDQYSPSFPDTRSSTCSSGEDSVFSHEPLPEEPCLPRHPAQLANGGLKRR
Sequence of Serine/threonine-protein kinase Nek6 (Homo sapiens) (Q9HC98 whole entry): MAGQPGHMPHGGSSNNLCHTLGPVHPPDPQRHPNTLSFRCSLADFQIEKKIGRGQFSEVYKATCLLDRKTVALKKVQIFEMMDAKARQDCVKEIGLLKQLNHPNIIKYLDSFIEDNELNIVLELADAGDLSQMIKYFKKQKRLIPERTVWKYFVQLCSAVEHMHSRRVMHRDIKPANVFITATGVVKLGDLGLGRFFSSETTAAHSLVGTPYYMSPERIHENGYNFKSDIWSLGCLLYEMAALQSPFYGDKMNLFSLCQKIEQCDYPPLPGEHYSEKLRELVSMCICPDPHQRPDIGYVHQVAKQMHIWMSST
Sequence of Tyrosine-protein kinase Mer (Homo sapiens) (Q12866 whole entry): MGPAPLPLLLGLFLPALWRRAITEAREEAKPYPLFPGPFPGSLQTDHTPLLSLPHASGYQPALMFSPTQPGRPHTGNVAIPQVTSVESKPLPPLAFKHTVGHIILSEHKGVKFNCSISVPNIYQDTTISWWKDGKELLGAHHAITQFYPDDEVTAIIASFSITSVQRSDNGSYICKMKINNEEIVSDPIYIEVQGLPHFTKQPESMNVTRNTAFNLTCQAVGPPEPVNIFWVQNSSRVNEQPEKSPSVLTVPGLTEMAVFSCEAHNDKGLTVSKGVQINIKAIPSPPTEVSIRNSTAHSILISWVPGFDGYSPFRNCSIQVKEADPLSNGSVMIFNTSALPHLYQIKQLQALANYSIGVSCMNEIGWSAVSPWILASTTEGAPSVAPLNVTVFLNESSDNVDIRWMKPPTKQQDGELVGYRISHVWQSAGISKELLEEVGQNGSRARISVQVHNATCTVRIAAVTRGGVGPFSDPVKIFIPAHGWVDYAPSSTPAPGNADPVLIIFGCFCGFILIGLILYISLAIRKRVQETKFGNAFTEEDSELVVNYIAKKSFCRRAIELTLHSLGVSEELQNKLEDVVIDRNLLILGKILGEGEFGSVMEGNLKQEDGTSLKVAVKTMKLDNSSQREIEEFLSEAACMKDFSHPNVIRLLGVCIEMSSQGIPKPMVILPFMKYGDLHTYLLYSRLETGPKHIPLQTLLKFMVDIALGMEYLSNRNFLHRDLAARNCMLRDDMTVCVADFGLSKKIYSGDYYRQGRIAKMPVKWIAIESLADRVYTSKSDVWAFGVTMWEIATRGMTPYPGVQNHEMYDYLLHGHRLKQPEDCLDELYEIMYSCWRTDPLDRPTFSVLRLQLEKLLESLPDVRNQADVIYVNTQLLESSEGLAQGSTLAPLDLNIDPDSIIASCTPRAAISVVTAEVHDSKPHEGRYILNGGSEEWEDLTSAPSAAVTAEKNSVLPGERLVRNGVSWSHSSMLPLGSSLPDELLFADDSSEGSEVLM
Sequence of Cyclin-dependent kinase-like 3 (Homo sapiens) (Q8IVW4 whole entry, looked up): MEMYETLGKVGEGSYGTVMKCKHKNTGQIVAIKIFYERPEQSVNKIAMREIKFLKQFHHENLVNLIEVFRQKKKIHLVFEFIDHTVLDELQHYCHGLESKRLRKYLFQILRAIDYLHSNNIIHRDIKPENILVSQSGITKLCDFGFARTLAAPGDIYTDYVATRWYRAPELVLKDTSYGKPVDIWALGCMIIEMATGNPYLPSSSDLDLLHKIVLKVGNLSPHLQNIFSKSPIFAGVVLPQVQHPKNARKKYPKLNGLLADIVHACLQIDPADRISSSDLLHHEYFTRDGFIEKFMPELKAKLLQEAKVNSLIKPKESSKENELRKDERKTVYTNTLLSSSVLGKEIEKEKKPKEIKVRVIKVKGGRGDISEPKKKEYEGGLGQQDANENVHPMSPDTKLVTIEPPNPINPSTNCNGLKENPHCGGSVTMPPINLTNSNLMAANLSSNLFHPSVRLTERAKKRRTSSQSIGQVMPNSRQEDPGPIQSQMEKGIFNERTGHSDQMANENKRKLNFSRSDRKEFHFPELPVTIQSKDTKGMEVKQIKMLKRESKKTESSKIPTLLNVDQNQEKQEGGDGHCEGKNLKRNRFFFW
Sequence of ALK tyrosine kinase receptor (Homo sapiens), Q9UM73 [C1156Y] (Q9UM73 whole entry C1156Y, looked up): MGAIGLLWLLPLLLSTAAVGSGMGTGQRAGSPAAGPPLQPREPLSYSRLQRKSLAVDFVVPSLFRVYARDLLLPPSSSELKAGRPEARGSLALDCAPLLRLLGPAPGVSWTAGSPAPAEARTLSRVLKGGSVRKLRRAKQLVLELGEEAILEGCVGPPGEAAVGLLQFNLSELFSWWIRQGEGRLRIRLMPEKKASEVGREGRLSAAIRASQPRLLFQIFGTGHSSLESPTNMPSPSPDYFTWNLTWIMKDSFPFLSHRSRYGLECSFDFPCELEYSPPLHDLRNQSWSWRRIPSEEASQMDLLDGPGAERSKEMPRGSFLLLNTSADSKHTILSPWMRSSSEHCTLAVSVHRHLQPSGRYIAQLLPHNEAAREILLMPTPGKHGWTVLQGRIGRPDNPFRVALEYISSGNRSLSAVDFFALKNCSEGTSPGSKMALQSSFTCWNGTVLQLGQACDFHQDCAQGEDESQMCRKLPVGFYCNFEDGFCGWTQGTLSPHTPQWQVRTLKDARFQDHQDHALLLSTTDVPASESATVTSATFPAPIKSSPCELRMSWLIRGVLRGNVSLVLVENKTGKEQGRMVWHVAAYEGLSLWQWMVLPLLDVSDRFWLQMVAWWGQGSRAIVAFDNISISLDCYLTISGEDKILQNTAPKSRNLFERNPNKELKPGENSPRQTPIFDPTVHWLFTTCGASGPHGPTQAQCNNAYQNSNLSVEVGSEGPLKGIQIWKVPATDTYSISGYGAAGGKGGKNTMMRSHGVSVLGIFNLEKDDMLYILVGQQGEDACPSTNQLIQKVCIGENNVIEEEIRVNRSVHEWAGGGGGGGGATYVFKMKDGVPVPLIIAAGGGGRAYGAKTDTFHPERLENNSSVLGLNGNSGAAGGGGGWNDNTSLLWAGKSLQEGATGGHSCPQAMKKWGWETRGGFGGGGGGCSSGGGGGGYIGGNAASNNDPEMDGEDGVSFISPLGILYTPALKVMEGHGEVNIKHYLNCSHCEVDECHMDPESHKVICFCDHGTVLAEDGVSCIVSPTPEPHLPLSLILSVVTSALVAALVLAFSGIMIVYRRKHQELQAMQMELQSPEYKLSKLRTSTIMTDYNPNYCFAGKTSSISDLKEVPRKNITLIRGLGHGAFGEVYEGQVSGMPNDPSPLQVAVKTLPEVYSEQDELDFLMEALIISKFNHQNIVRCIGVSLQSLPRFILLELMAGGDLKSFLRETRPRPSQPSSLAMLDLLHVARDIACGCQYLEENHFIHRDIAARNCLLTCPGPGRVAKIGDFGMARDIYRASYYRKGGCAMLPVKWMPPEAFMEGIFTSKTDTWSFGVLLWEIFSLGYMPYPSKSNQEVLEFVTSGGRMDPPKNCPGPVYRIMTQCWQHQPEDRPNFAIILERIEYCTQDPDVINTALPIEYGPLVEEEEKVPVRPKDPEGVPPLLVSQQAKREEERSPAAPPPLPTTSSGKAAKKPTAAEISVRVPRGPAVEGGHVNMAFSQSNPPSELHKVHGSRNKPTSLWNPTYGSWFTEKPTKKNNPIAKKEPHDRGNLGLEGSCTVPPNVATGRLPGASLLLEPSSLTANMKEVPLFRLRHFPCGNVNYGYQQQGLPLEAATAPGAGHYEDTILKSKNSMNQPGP

O=C(Nc1cccnn1)N1CC(C/C=C/c2cncc(Oc3ccc(C(F)(F)F)cn3)n2)C1
residual activity [1]: 67%
residual activity [2]: 67%
residual activity [3]: 100%
residual activity [4]: 76%
residual activity [5]: 87%
residual activity [6]: 81%
residual activity [7]: 100%
residual activity [8]: 100%
residual activity [9]: 91%
residual activity [10]: 100%
residual activity [11]: 100%
residual activity [12]: 95%
residual activity [13]: 100%
residual activity [14]: 100%
residual activity [15]: 100%
residual activity [16]: 100%
residual activity [17]: 100%
residual activity [18]: 100%
residual activity [19]: 100%
residual activity [20]: 100%
residual activity [21]: 66%
residual activity [22]: 94%
residual activity [23]: 66%
residual activity [24]: 100%
residual activity [25]: 100%
residual activity [26]: 100%
residual activity [27]: 100%
residual activity [28]: 71%
residual activity [29]: 100%
residual activity [30]: 81%
residual activity [31]: 75%
residual activity [32]: 91%
residual activity [33]: 100%
residual activity [34]: 93%
residual activity [35]: 100%
residual activity [36]: 100%
residual activity [37]: 87%
residual activity [38]: 80%
residual activity [39]: 100%
residual activity [40]: 77%
residual activity [41]: 82%
residual activity [42]: 79%
residual activity [43]: 90%
residual activity [44]: 90%
inhibition [45]: -2.98%

O=C(Nc1cccnn1)N1CCC(=Cc2cccc(Oc3ccc(C(F)(F)F)cn3)c2)CC1
residual activity [1]: 100%
residual activity [2]: 94%
residual activity [3]: 86%
residual activity [4]: 100%
residual activity [5]: 68%
residual activity [6]: 100%
residual activity [7]: 100%
residual activity [8]: 100%
residual activity [9]: 88%
residual activity [10]: 74%
residual activity [11]: 92%
residual activity [12]: 81%
residual activity [13]: 78%
residual activity [14]: 100%
residual activity [15]: 84%
residual activity [16]: 100%
residual activity [17]: 100%
residual activity [18]: 100%
residual activity [19]: 100%
residual activity [20]: 100%
residual activity [21]: 100%
residual activity [22]: 83%
residual activity [23]: 100%
residual activity [24]: 81%
residual activity [25]: 95%
residual activity [26]: 100%
residual activity [27]: 92%
residual activity [28]: 100%
residual activity [29]: 100%
residual activity [30]: 100%
residual activity [31]: 100%
residual activity [32]: 100%
residual activity [33]: 100%
residual activity [34]: 100%
residual activity [35]: 100%
residual activity [36]: 100%
residual activity [37]: 95%
residual activity [38]: 100%
residual activity [39]: 98%
residual activity [40]: 100%
residual activity [41]: 42%
residual activity [42]: 100%
residual activity [43]: 85%
residual activity [44]: 100%
inhibition [45]: 42.1%
